# Experimental data from US20100113436A1, “DISPIRO TETRAOXANE COMPOUNDS AND THEIR USE IN THE TREATMENT OF MALARIA AND/OR CANCER” (priority 2006, published 2010).
# “And” between values parts separate entries of the source, which are not always exact repeats. Equal values may be shown once. Read-outs that look alike come from different tables or passages of the source. Marks after values point to notes of the source that are not given here.
# What was measured:
# [1] = tested on: HepG2 Human hepatocyte carcinoma; test: Cellular cytotoxicity screen, Resazurin reduction; type: cell-based; conditions: Hep2G; for Theraputic Index (TI): ratio TOX 50 to IC50 against 3D7 P. falciparum
# From the text: (§1) Values represent Tox 50 in μM. Cytotoxicity measured by Resazurin reduction.
# (§2) Single full dose response curves generated using 10 independent drug concentrations. The 100 therapeutic index (TI) is the ration of the TOX 50 to the IC50 for the specific compound against the 3D7 P. falciparum isolate. The primary hepatocytes have demonstrable drug metabolising activity. The tetraoxane derivatives are remarkably non-toxic in these screens with in vitro TIs of between 5000 to 17000!.
# [2] = tested on: H9c2(2-1) Myocardium, heart; test: Cellular cytotoxicity screen, Resazurin reduction; type: cell-based, rat; conditions: H9c(2-1); for Theraputic Index (TI): ratio TOX 50 to IC50 against 3D7 P. falciparum
# From the text: as §1, §2
# [3] = tested on: L6 Sketal muscle myoblast; test: Cellular cytotoxicity screen, Resazurin reduction; type: cell-based, rat; conditions: for Theraputic Index (TI): ratio TOX 50 to IC50 against 3D7 P. falciparum
# From the text: as §1, §2
# [4] = tested on: MRC-5 Embryonal lung, diploid; test: Cellular cytotoxicity screen, Resazurin reduction; type: cell-based, Human; conditions: for Theraputic Index (TI): ratio TOX 50 to IC50 against 3D7 P. falciparum
# From the text: as §1, §2
# Vero Kidney = test: Cellular cytotoxicity screen, Resazurin reduction; type: cell-based, African green monkey, Cercopithecus aethiops; conditions: for Theraputic Index (TI): ratio TOX 50 to IC50 against 3D7 P. falciparum
# From the text: as §1, §2
# Plasmodium yoelli = test: 4-day Peter's suppressive test; type: in vivo; conditions: 4-day Peter's test, mice
# Method: Selections of the compounds were screened for in vivo activity. In vivo data (Table 6) was determined using 30 mg/kg oral (po) and subcutaneous (sc) doses in a 4-days Peter's test. For subcutaneous administration, compounds were dissolved in 10% dimethylsulfoxide (DMSO) 0.05% Tween 80 (Sigma, Dorset, UK) in distilled water. For oral administration, compounds were dissolved in standard suspending formula (SSV) [0.5% sodium carboxymethylcellulose, 0.5% benzyl alcohol, 0.4% Tween 80, 0.9% NaCl (all Sigma)]. Subcutaneous (s.c) or oral (p.o) treatment was done with 0.2 ml of a solution of the test compound two hours (day 0) and on days 1, 2, and 3 post infections. Parasitaemia was determined by microscopic examination of Giemsa stained blood films taken on day 4. Microscopic counts of blood films from each mouse were processed using MICROSOFT@EXCELL spreadsheet (Microsoft Corp.) and expressed as percentage of inhibition from the arithmetic mean parasitaemias of each group in relation to the untreated group.
# P. berghei ANKA [5] = test: In vivo dose response screening against P. berghei ANKA; set-up: species or system mice; conditions: for ED50: Plasmodium berghei
# Method: Compound 29c, 29h and 291 were then subjected to dose response experiment against the P. berghei ANKA and the results are summarized in Table 7 below.
# [6] = tested on: 3D7 strain of Plasmodium falciparum; test: In vitro antimalarial activity, 48-h [3H]-hypoxanthine incorporation assay; type: cell-based
# Method: The 3D7 strain of Plasmodium falciparum was used in this study. This strain is known to be […] Parasites were maintained in continuous culture using the method of Jensen and Trager^4. […] Stock drug solutions were prepared in 100% dimethylsulphoxide (DMSO) and diluted to the appropriate concentration using complete medium. Assays were performed in sterile 96-well microlitre plates, each plate contained 200 μl of parasite culture (2% parasitemia, 0.5% haematocrit) with or without 10 μl drug dilutions. Each drug was tested in triplicate and parasite growth compared to control wells (which constituted 100% parasite growth). […] IC50 values were calculated by interpolation of the probit transformation of the log dose-response curve.
# [7] = Timed iron degradation stability, FeBr2 in THF; type: physicochemical; conditions: ferrous bromide/THF
# From the text: The resulting residue was purified by flash column chromatography and the % recovery of starting endoperoxide calculated (Table 15).
# [8] = tested on: Plasmodium falciparum PH3; test: In vitro analysis versus strains of Plasmodium falciparum: PH3; type: cell-based
# Plasmodium falciparum K1 = test: In vitro analysis versus strains of Plasmodium falciparum: K1; type: cell-based; conditions: K1 strain
# [9] = tested on: Plasmodium falciparum GC03; test: In vitro analysis versus strains of Plasmodium falciparum: GC03; type: cell-based; conditions: GC03 strain, read-out: IC50
# [10] = tested on: Plasmodium falciparum DD2; test: In vitro analysis versus strains of Plasmodium falciparum: DD2; type: cell-based; conditions: DD2 strain, read-out: IC50
# [11] = tested on: Plasmodium falciparum TM4; test: In vitro analysis versus strains of Plasmodium falciparum: TM4; type: cell-based; conditions: TM4 strain, read-out: IC50
# [12] = tested on: Salmonella typhimurium NM2009; test: Salmonella typhimurium SOS/umu genotoxicity assay; conditions: for Max. Fold Increase / Potential genotox: −S9
# From the text: (§3) This assay is based on the ability of DNA damaging agents to induce the expression of the umu operon. The Salmonella strains have a plasmid pSK1002 which carries an umuC-lacZ fused gene that produces a hybrid protein with β-galactosidase activity and whose expression is controlled by the umu regulatory region.
# [13] = tested on: Salmonella typhimurium TA1535/pSK1002; test: Salmonella typhimurium SOS/umu genotoxicity assay; conditions: for genotoxicity result in SOS/umu assay: both strains TA1535/pSK1002 and NM2009, highest concentration tested 50 μM, absence and presence of S-9 mix; for Max. Fold Increase / Potential genotox: −S9
# From the text: as §3
# [14] = tested on: Plasmodium falciparum HB3; test: In vitro analysis versus strains of Plasmodium falciparum: HB3; type: cell-based; conditions: HB3 strain, read-out: IC50
# P. berghei ANKA [15] = test: In vivo dose response screening against P. berghei ANKA; conditions: P. berghei ANKA infected mice, Table 9; for ED90: sigmoidal curve calculation
# [16] = in Mus musculus, Chloroquine Resistant Strains of the P. Berghei ANKA, Table 7
# [17] = 3D7, 3D7 strain, mean of triplicate results, Table 5, read-out: Mean IC50
# [18] = Chloroquine Resistant Strains of the P. Berghei ANKA, Table 7
smiles,measurement,setting,value
COc1cccc2c1C(=O)c1c(O)c3c(c(O)c1C2=O)C[C@@](O)(C(=O)CO)C[C@@H]3O[C@H]1C[C@H](N)[C@H](O)[C@H](C)O1 [Doxorubicin],Tox 50,[1],0.3 µM
same,Tox 50,[2],3 µM
same,Tox 50,[3],>5 µM
same,Tox 50,[4],2 µM
same,Tox 50,Vero Kidney,>5 µM
"O=C(CC1CCC2(CC1)OOC1(CCCCC1)OO2)NC1CC1 [Tetraoxane 27c, N-Cyclopropyl-2-(7,8,15,16-tetraoxa-dispiro[5.2.5.2]hexadec-3-yl)-acetamide]",Percentage of inhibition at 30 mg/kg (p.o),Plasmodium yoelli,24.8%
same,melting point,,148 to 150 °C
CN1CCN(C(=O)CC2CCC3(CC2)OOC2(OO3)C3CC4CC(C3)CC2C4)CC1 (stereo not shown) [Tetraoxane 29l],ED50,P. berghei ANKA [5]; [16],2.7 mg/kg
same,Percentage of inhibition at 30 mg/kg (p.o),Plasmodium yoelli,100%
same,IC50,[6]; [17],0.5 nM
O=S(=O)(c1ccccc1)N1CCC2(CC1)OOC1(O2)C2CC3CC(C2)CC1C3 (stereo not shown) [Tetraoxane 42],degradation,[7]; after 4 h,~90%
same,turnover,[7]; after 48 h,100%
"O=C(CC1CCC2(CC1)OOC1(OO2)C2CC3CC(C2)CC1C3)N1CCOCC1 (stereo not shown) [Tetraoxane 29h, Adamantly-1-Morpholin-4-yl tetraoxane acetamide]",Tox 50,[1],>50 µM
same,Theraputic Index (TI),[1],>16666
same,ED90,P. berghei ANKA [5]; [18],3.88 mg/kg
same,ED50,P. berghei ANKA [5]; [16],3.18 mg/kg
same,IC50,"[8]; PH3 strain, read-out: IC50",0.3 nM
same,IC50,Plasmodium falciparum K1,0.8 nM
same,Tox 50,[2],>50 µM
same,Theraputic Index (TI),[2],>16666
same,Tox 50,[3],23 µM
same,Theraputic Index (TI),[3],7666
same,Tox 50,[4],>50 µM
same,Theraputic Index (TI),[4],>16666
same,IC50,[9],0.9 nM
same,Percentage of inhibition at 30 mg/kg (p.o),Plasmodium yoelli,100%
same,solubility,physchem,50 µM
same,IC50,[10],0.6 nM
same,IC50,[11],0.6 nM
same,IC50,"[6]; 3D7, read-out: Mean IC50",5.2 nM
same,Tox 50,Vero Kidney,>50 µM
same,Theraputic Index (TI),Vero Kidney,>16666
same,melting point,,139 to 140 °C
same,MCE NM2009 (Maximum Co w/o effects on bacteria growth or beta-galactosidase production),[12]; Salmonella typhimurium,50 µM
same,Max. Fold Increase,[12],1.22 ± 0.03 fold
same,Potential genotox,[12],NEG
same,MCE TA1535 (Maximum Co w/o effects on bacteria growth or β-galactosidase production),[13]; Salmonella typhimurium,50 µM
same,genotoxicity result in SOS/umu assay,[13],Negative
same,Max. Fold Increase,[13],1.04 ± 0.04 fold
same,Potential genotox,[13],NEG
same,IC50,[14],1.4 nM
"O=C(CC1CCC2(CC1)OOC1(CCCCC1)OO2)N1CCOCC1 [Tetraoxane 27h, 1-Morpholin-4-yl-2-(7,8,15,16-tetraoxa-dispiro[5.2.5.2]hexadec-3-yl)-ethanone]",Percentage of inhibition at 30 mg/kg (p.o),Plasmodium yoelli,33.0%
same,IC50,[6]; [17],22.2 nM
same,melting point,,126 to 128 °C
"C[C@H]1[C@H](OC(=O)CCC(=O)O)O[C@@H]2O[C@@]3(C)CC[C@H]4[C@H](C)CC[C@@H]1[C@@]24OO3 [Artesunate, artesunate]",IC50,[8],0.9 nM
same,Percentage of inhibition at 30 mg/kg (p.o),Plasmodium yoelli,100%
same,ED50,P. berghei ANKA [15],2.90 mg/kg
same,ED90,P. berghei ANKA [15],17.78 mg/kg and 16.67 mg/kg
same,ED50,"P. berghei ANKA [15]; Plasmodium berghei, in Mus musculus",3.2 mg/kg
O=S(=O)(C1CC1)N1CCC2(CC1)OOC1(OO2)C2CC3CC(C2)CC1C3 [Tetraoxane 39d],Tox 50,[1],>50 µM
same,Theraputic Index (TI),[1],>14285
same,ED50,"P. berghei ANKA [5]; P. berghei ANKA infected mice, Table 9",7.93 mg/kg
same,Tox 50,[2],>50 µM
same,Theraputic Index (TI),[2],>14285
same,Tox 50,[3],>50 µM
same,Theraputic Index (TI),[3],>14285
same,Tox 50,[4],>50 µM
same,Theraputic Index (TI),[4],>14285
same,solubility,physchem,50 µM
same,IC50,"[6]; 3D7, read-out: Mean IC50",3.52 nM
same,Tox 50,Vero Kidney,>50 µM
same,Theraputic Index (TI),Vero Kidney,>14285
same,MCE NM2009 (Maximum Co w/o effects on bacteria growth or beta-galactosidase production),[12]; Salmonella typhimurium,50 µM
same,Max. Fold Increase,[12],1.09 ± 0.03 fold
same,Potential genotox,[12],NEG
same,MCE TA1535 (Maximum Co w/o effects on bacteria growth or β-galactosidase production),[13]; Salmonella typhimurium,50 µM
same,genotoxicity result in SOS/umu assay,[13],Negative
same,Max. Fold Increase,[13],1.05 ± 0.09 fold
same,Potential genotox,[13],NEG
same,ED90,P. berghei ANKA [15],49.77 mg/kg
"CO[C@H]1O[C@@H]2O[C@@]3(C)CC[C@H]4[C@H](C)CC[C@@H]([C@H]1C)[C@@]24OO3 [Artemether, artemether, reference compound]",ED90,P. berghei ANKA [5]; [18],10.57 mg/kg
same,ED50,P. berghei ANKA [5]; [16],5.88 mg/kg
same,Percentage of inhibition at 30 mg/kg (p.o),Plasmodium yoelli,100%
same,IC50,[6]; [17],1.7 nM
same,IC50,"[6]; 3D7, sulfonamide dispiro 1,2,4,5-tetraoxanes, Table 8, read-out: Mean IC50",3.2 nM
"O=C(CC1CCC2(CC1)OOC1(OO2)C2CC3CC(C2)CC1C3)NC1CC1 (stereo not shown) [Tetraoxane 29c, Adamantyl-N-Cyclopropyl tetraoxane acetamide]",ED90,P. berghei ANKA [5]; [18],20.33 mg/kg
same,ED50,P. berghei ANKA [5]; [16],10.3 mg/kg
same,Percentage of inhibition at 30 mg/kg (p.o),Plasmodium yoelli,100%
same,IC50,[6]; [17],2.3 nM
same,melting point,,140 to 142 °C
"Nc1ccc2cc3ccccc3cc2c1 [Tetraoxane 2Aan, 2-Aminoanthracene, reference compound]",solubility,physchem,5 µg/mL
same,MCE NM2009 (Maximum Co w/o effects on bacteria growth or beta-galactosidase production),[12]; in the presence of rat S9,0.31* μg/mL
same,Max. Fold Increase,[12],1.08 ± 0.01 fold
same,Potential genotox,[12],NEG
same,MCE TA1535 (Maximum Co w/o effects on bacteria growth or β-galactosidase production),[13]; positive controls,5 µg/mL
same,Max. Fold Increase,[13],1.10 ± 0.11 fold
same,Potential genotox,[13],NEG
O=S(=O)(c1ccccc1)N1CCC2(CC1)COC1(OO2)C2CC3CC(C2)CC1C3 (stereo not shown) [Tetraoxane 43],degraded,[7]; after 48 h,57%
